Assay results reported in patent publication EP4755885A1 (Shanghai Hansoh Biomedical Co., Ltd., priority 2023, dated 2025).
Read-outs that look alike come from different tables or passages of the source.

Key:
[1] = molecular target: T1, human GLP-1 receptor (Homo sapiens, UniProt P43220); experiment: cAMP production in cell line stably transformed with human GLP1 receptor, 30 min co-incubation (HTRF); assay type: cell-based; settings: CHO-K1/GLP-1R/CRE-luc cells, stimulation for 0.5 h
T1 construct: expressed in transfected cells
T1 sequence (P43220 24-463): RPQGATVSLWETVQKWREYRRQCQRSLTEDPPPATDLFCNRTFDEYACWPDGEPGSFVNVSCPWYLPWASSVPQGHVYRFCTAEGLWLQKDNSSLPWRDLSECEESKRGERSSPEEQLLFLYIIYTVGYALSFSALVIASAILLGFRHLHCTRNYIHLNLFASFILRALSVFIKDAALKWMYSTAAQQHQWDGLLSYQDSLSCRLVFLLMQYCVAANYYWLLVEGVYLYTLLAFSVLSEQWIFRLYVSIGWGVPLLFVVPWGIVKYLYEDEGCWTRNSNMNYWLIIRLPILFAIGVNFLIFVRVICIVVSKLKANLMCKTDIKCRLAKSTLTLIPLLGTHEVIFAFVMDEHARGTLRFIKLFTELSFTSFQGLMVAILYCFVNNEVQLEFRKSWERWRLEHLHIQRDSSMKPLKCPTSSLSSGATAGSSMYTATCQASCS

[2] = Pharmacokinetic evaluation in beagles, oral administration; assay type: in vivo; settings: dog, po, p.o. 2 mg/kg, plasma; for Cmax: read-out: Cmax; for MRT inf: read-out: MRT 0-∞; for Tmax: read-out: tmax
In short: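 Male beagles (3) fasted overnight received 2 mg/kg orally as a 0.4 mg/mL solution in 10% PEG400/10% PG/80% glycine buffer, pH 9.0-9.5. Plasma (EDTA-K2) sampled predose and 0.25-24 h; acetonitrile precipitation, then LC/MS/MS quantification.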

[3] = Pharmacokinetic evaluation in Macaca fascicularis monkeys, oral administration; assay type: in vivo; settings: cynomolgus monkey, p.o. 5 mg/kg, plasma; for MRT inf: read-out: MRT 0-∞
Protocol: Macaca fascicularis monkeys were used as test animals to study the pharmacokinetic behavior of the compound of the present invention, administered orally at a dose of 5 mg/kg, in Macaca fascicularis monkeys (plasma).
Macaca fascicularis monkeys, 3 per group, male.
Preparation of drug for oral administration: 10%PEG400/10%PG/80% glycine buffer (100 mM glycine, 64 Mm NaOH, […]) buffer.
Single PK: The compound of the present invention was weighed into a 100 mL glass bottle, and the solution was added. The pH was first adjusted with 1 M NaOH until the compound dissolves to obtain a clear solution, and then the pH was readjusted to pH 9.0-9.5 with 1 M HCl. Sonication was performed for 10 min to obtain a colorless clear solution having a concentration of 1 mg/mL.
Three Macaca fascicularis monkeys, male, respectively administered p.o. after fasting overnight, at a dose of 5 mg/kg and in an administration volume of 5 mL/kg.
Blood collection: 0.3 mL of blood was collected from the forelimb vein of the Macaca fascicularis monkeys before administration and at 0.25, 0.5, 1, 2, 4, 6, 8, and 24 h after administration. The blood samples were placed in EDTA-K2 anticoagulant tubes and centrifuged at 6000 rpm at 4°C for 6 min to separate plasma, which was stored at -80°C. The Macaca fascicularis monkeys were fed 4 h after administration.
• 1) 40 µL of a plasma sample was added with 160 µL of acetonitrile for precipitation, and after mixing, the mixture was centrifuged at 3500 × g for 5 to 20 min. • 2) The supernatant solution after treatment was taken for LC/MS/MS analysis of the concentration of the test compound. The LC/MS/MS analysis instrument was AB Sciex API 4000 Qtrap.
• Liquid phase condition: Shimadzu LC-20AD pump • Chromatographic column: Agilent ZORBAX XDB-C18 (50×2.1 mm, 3.5 µm) Mobile phase: Solution A was 0.1% formic acid aqueous solution, and Solution B was acetonitrile • Flow rate: 0.4 mL/min • Elution time: 0-4.0 min, the eluent was as follows: […]

SMILES: Cc1cc(-n2nc3c(c2-n2ccn(-c4ccc5c(cnn5C5CC5)c4F)c2=O)[C@H](C)N(C(=O)c2cc4cc([C@H]5CCOC(C)(C)C5)ccc4n2[C@@]2(c4noc(=O)[nH]4)C[C@@H]2COC2CC2)CC3)cc(C)c1F [Example 67]
- EC50 [1]: 1.4 nM
- AUC(0-inf) [2]: 11800 ng·h/mL
- AUC(0-t) at 24 h [2]: 11500 ng·h/mL
- half-life [2]: 4.2 h
- Cmax [2]: 2110 ng/mL
- MRT inf [2]: 5.7 h
- Tmax [2]: 1.5 h

SMILES: C#C[C@H]1C[C@]1(c1noc(=O)[nH]1)n1c(C(=O)N2CCc3nn(-c4cc(C)c(F)c(C)c4)c(-n4ccn(-c5ccc6c(cnn6C6CC6)c5F)c4=O)c3[C@@H]2C)cc2cc([C@H]3CCOC(C)(C)C3)ccc21 [Example 143]
- AUC(0-inf) ([3]; male): 26200 ng·h/mL
- AUC(0-t) ([3]; male): 26000 ng·h/mL
- Cmax ([3]; male): 4040 ng/mL
- Tmax ([3]; male): 2.7 h
- half-life ([3]; male): 3.2 h
- MRT inf ([3]; male): 5.1 h
- AUC(0-inf) ([2]; male, beagle): 17800 ng·h/mL
- half-life ([2]; male, beagle): 3.3 h
- AUC(0-t) ([2]; male, beagle, read-out: AUC 0-t): 13800 ng·h/mL
- Cmax ([2]; male, beagle): 2040 ng/mL
- MRT inf ([2]; male, beagle): 4.8 h
- Tmax ([2]; male, beagle): 2.7 h

SMILES: CC#C[C@H]1C[C@]1(c1noc(=O)[nH]1)n1c(C(=O)N2CCc3nn(-c4cc(C)c(F)c(C)c4)c(-n4ccn(-c5ccc6c(cnn6C6CC6)c5F)c4=O)c3[C@@H]2C)cc2cc([C@H]3CCOC(C)(C)C3)ccc21 [Example 144, 3-((1S,2R)-1-(2-((S)-3-(3-(1-cyclopropyl-4-fluoro-1H-indazole-5-yl)-2-carbonyl-2,3-dihydro-1H-imidazole-1-yl)-2-(4-fluoro-3,5-dimethylphenyl)-4-methyl-4,5,6,7-tetrahydro-2H-pyrazolo[4,3-c]pyridin-5-carbonyl)-5-((S)-2,2-dimethyltetrahydro-2H-pyrano-4-yl)-1H-indole-1-yl)-2-(propyl-1-alkynyl-1-yl)cyclopropyl)-1,2,4-oxadiazol-5(4H)-one]
- EC50 ([1]; read-out: EC50): 1 nM
- AUC(0-inf) [2]: 16600 ng·h/mL
- AUC(0-t) at 24 h [2]: 15900 ng·h/mL
- half-life [2]: 5.8 h
- Cmax [2]: 2470 ng/mL
- MRT inf [2]: 6.5 h
- Tmax [2]: 1.7 h

SMILES: [2H]C([2H])([2H])n1nc2c3c(c(-n4ccn(-c5c6c(nn5-c5cc(C)c(F)c(C)c5)CCN(C(=O)c5cc7cc([C@H]8CCOC(C)(C)C8)ccc7n5[C@@]5(c7noc(=O)[nH]7)C[C@@H]5C)[C@H]6C)c4=O)ccc31)OCCC2 [Example 282, 3-((1S,2S)-1-(5-((S)-2,2-dimethyltetrahydro-2H-pyran-4-yl)-2-((S)-2-(4-fluoro-3,5-dimethylphenyl)-4-methyl-3-(3-(2-(methyl-d3)-2,7,8,9-tetrahydrooxaheptano[4,3,2-cd]indazol-5-yl)-2-carbonyl-2,3-dihydro-1H-imidazol-1-yl)-4,5,6,7-tetrahydro-2H-pyrazolo[4,3-c]pyridine-5-carbonyl)-1H-indol-1-yl)-2-methylcyclopropyl)-1,2,4-oxadiazol-5(4H)-one]
- AUC(0-inf) [3]: 17000 ng·h/mL
- AUC(0-t) [3]: 7560 ng·h/mL
- Cmax [3]: 570 ng/mL
- Tmax [3]: 4 h
- half-life [3]: 47.6 h
- MRT inf [3]: 68.9 h
- AUC(0-inf) [2]: 10800 ng·h/mL
- AUC(0-t) at 24 h [2]: 9130 ng·h/mL
- half-life [2]: 8.5 h
- Cmax [2]: 858 ng/mL
- MRT inf [2]: 12.1 h
- Tmax [2]: 2 h
